What all share (assay type): functional, subcellular
Assay [1] has as its system ONS. Nature of the assay: Anti-parkinson's disease activity in human ONS cells assessed as alpha-tubulin marker intensity in inner region of cytoplasm at 5 uM by heat map analysis.
Assay [2] deals with ONS. Nature of the assay: Anti-parkinson's disease activity in human ONS cells assessed as alpha-tubulin marker intensity in cytoplasm at 5 uM by heat map analysis.
The test system of assay [3] is ONS. Nature of the assay: Anti-parkinson's disease activity in human ONS cells assessed as early endosome marker intensity in inner region of cytoplasm at 5 uM by heat map analysis.
Assay [4] has as its system ONS. Nature of the assay: Anti-parkinson's disease activity in human ONS cells assessed as lysosome marker intensity in inner region of cytoplasm at 5 uM by heat map analysis.
Assay [5] has as its system ONS. Nature of the assay: Anti-parkinson's disease activity in human ONS cells assessed as early endosome marker intensity in cytoplasm at 5 uM by heat map analysis.
For assay [6], the system named is ONS. Nature of the assay: Anti-parkinson's disease activity in human ONS cells assessed as alpha-tubulin marker intensity in outer region of cytoplasm at 5 uM by heat map analysis.
Assay [7] has as its system ONS. Nature of the assay: Anti-parkinson's disease activity in human ONS cells assessed as early endosome marker intensity in outer region of cytoplasm at 5 uM by heat map analysis.
Assay [8] relates to ONS. Nature of the assay: Anti-parkinson's disease activity in human ONS cells assessed as lysosome marker intensity in cytoplasm at 5 uM by heat map analysis.
The subject of assay [9] is ONS. Nature of the assay: Anti-parkinson's disease activity in human ONS cells assessed as lysosome marker intensity in outer region of cytoplasm at 5 uM by heat map analysis.
The test system of assay [10] is ONS. Nature of the assay: Anti-parkinson's disease activity in human ONS cells assessed as negative mitochondrial marker intensity in outer region of cytoplasm at 5 uM by heat map analysis.
The test system of assay [11] is ONS. Nature of the assay: Anti-parkinson's disease activity in human ONS cells assessed as LC3B marker intensity in outer region of cytoplasm at 5 uM by heat map analysis.
The subject of assay [12] is ONS. Nature of the assay: Anti-parkinson's disease activity in human ONS cells assessed as negative mitochondrial marker intensity in cytoplasm at 5 uM by heat map analysis.
Assay [13] concerns ONS. Nature of the assay: Anti-parkinson's disease activity in human ONS cells assessed as LC3B marker intensity in inner region of cytoplasm at 5 uM by heat map analysis.
Assay [14] relates to ONS. Nature of the assay: Anti-parkinson's disease activity in human ONS cells assessed as LC3B marker intensity in cytoplasm at 5 uM by heat map analysis.
Assay [15] concerns ONS. Nature of the assay: Anti-parkinson's disease activity in human ONS cells assessed as negative mitochondrial marker intensity in inner region of cytoplasm at 5 uM by heat map analysis.

SMILES strings stand for the structures. Activity calls are given as the source filed them. The rule behind the calls is not given here.

For the compound `CCC(=O)c1ccc2c(c1)OCO2`, the outcome with ONS [1], in the assay on ONS [2], in the assay with ONS [3], in the assay on ONS [4], in the assay with ONS [5] and in the assay on ONS [6] was Active. Also, the outcome with ONS [7], in the assay with ONS [8] and in the assay on ONS [9] was Active.
`COc1cc(C(=O)O)ccc1O`: the result with ONS [1], in the assay on ONS [2], with ONS [3], in the assay on ONS [4], with ONS [5] and in the assay with ONS [6] was Active. The outcome with ONS [7], in the assay on ONS [8] and in the assay on ONS [9] was Active.
With `C=CCc1cc(OC)c(O)c(OC)c1`, the result in the assay on ONS [1], with ONS [2], in the assay with ONS [3], in the assay on ONS [4], in the assay on ONS [5] and with ONS [6] was Active. The result with ONS [7], with ONS [8] and in the assay on ONS [9] was Active.
As to `c1cc2c(cc1[C@H]1OC[C@H]3[C@@H]1CO[C@H]3c1ccc3c(c1)OCO3)OCO2`, the result in the assay on ONS [1], with ONS [2], in the assay with ONS [3], in the assay with ONS [4], in the assay with ONS [5] and in the assay on ONS [6] was Active. The result in the assay with ONS [7], in the assay with ONS [8] and in the assay on ONS [9] was Active.
For `C/C=C/C=C\CC/C=C/C=C/C(=O)NCC(C)C`, the result in the assay with ONS [10], in the assay on ONS [11], in the assay on ONS [12], in the assay with ONS [13], in the assay with ONS [14] and in the assay on ONS [15] was Active.
As for `C=CCc1cc(OC)c(OC)c(OC)c1`, the result in the assay on ONS [1], in the assay on ONS [2], in the assay with ONS [3], in the assay on ONS [4], in the assay with ONS [5] and with ONS [6] was Active. Also, the outcome in the assay on ONS [7], in the assay with ONS [8] and in the assay with ONS [9] was Active.
For `CCC(=O)c1cc(OC)c(O)cc1O`, the outcome in the assay with ONS [1], in the assay on ONS [2], in the assay with ONS [3], with ONS [4], with ONS [5] and in the assay on ONS [6] was Active. Further, the outcome with ONS [7], in the assay on ONS [8] and in the assay on ONS [9] was Active.
Consider `C/C=C\CC/C=C/C=C/C(=O)NCC(C)C`, for which the outcome in the assay with ONS [1], in the assay with ONS [2], in the assay on ONS [3], in the assay on ONS [4], with ONS [5] and in the assay with ONS [6] was Active. In addition, the outcome in the assay with ONS [7], with ONS [8] and in the assay with ONS [9] was Active.
For the compound `COc1cc([C@H]2OC[C@H]3[C@@H]2CO[C@@H]3c2ccc3c(c2)OCO3)ccc1O`, the result with ONS [10], in the assay with ONS [11], in the assay with ONS [12], with ONS [13], in the assay with ONS [14] and with ONS [15] was Active.
For the compound `c1cc2c(cc1[C@H]1OC[C@H]3[C@@H]1CO[C@@H]3c1ccc3c(c1)OCO3)OCO2`, the result in the assay with ONS [10], in the assay with ONS [3], in the assay with ONS [4], in the assay with ONS [5], with ONS [12] and in the assay with ONS [7] was inactive. Further, the outcome in the assay with ONS [8], in the assay on ONS [15] and in the assay on ONS [9] was inactive.
For `C=CCc1cc2c(cc1OC)OCO2`, the outcome in the assay on ONS [1], in the assay on ONS [2], in the assay on ONS [3], with ONS [4], in the assay on ONS [5] and in the assay with ONS [6] was Active. Also, the result in the assay with ONS [7], in the assay on ONS [8] and with ONS [9] was Active.
On to `CCC(=O)c1cc2c(cc1O)OCO2`, for which the outcome in the assay with ONS [10], in the assay with ONS [3], in the assay with ONS [4], in the assay with ONS [5], in the assay on ONS [12] and with ONS [7] was inactive. In addition, the outcome with ONS [8], in the assay on ONS [15] and in the assay on ONS [9] was inactive.
Regarding `C/C=C/C=C/CC/C=C/C=C/C(=O)NCC(C)C`, the result in the assay on ONS [10], with ONS [11], in the assay on ONS [12], in the assay on ONS [13], in the assay with ONS [14] and with ONS [15] was Active.
On to `O=C(O)/C=C/c1ccc(O)cc1`, for which the result in the assay on ONS [10], in the assay on ONS [3], in the assay on ONS [4], in the assay on ONS [5], with ONS [12] and in the assay on ONS [7] was inactive. Moreover, the outcome in the assay with ONS [8], in the assay with ONS [15] and in the assay on ONS [9] was inactive.
Take `O=C(O)c1ccc(O)cc1`: the result in the assay with ONS [1], in the assay on ONS [2], in the assay on ONS [3], with ONS [4], with ONS [5] and in the assay on ONS [6] was Active. Also, the outcome with ONS [7], in the assay on ONS [8] and with ONS [9] was Active.
`COc1cc(/C=C/C(=O)O)ccc1O`: the outcome in the assay with ONS [1], in the assay on ONS [2], in the assay with ONS [3], with ONS [4], with ONS [5] and with ONS [6] was Active. The result in the assay with ONS [7], with ONS [8] and in the assay on ONS [9] was Active.
Turning to `C/C=C\C=C/CC/C=C/C=C/C(=O)NCC(C)C`, the outcome in the assay with ONS [1], with ONS [2], in the assay on ONS [3], in the assay on ONS [4], in the assay on ONS [5] and with ONS [6] was Active. In addition, the result in the assay with ONS [7], in the assay on ONS [8] and with ONS [9] was Active.
As for `COc1cc([C@H]2OC[C@H]3[C@@H]2CO[C@H]3c2ccc3c(c2)OCO3)ccc1O`, the outcome in the assay on ONS [10], in the assay on ONS [3], in the assay on ONS [4], in the assay with ONS [5], in the assay on ONS [12] and in the assay on ONS [7] was inactive. The result with ONS [8], in the assay on ONS [15] and in the assay with ONS [9] was inactive.
As for `CCC(=O)c1cc2c(cc1OC)OCO2`, the outcome in the assay with ONS [10], in the assay on ONS [3], with ONS [4], with ONS [5], in the assay with ONS [12] and with ONS [7] was inactive. Moreover, the result in the assay on ONS [8], in the assay with ONS [15] and in the assay with ONS [9] was inactive.

Source of the values: ChEMBL document CHEMBL5365402, “Phytochemical investigation of Asarum sieboldii var. seoulense and the phenotypic profiles of its constituents against a Parkinson's Disease olfactory cell line” (Bioorg Med Chem Lett, 2023).
